From ChEMBL document CHEMBL1201862, “PubChem BioAssay data set” (2004) come the findings set out here.

One may read the IC50 as the point on the concentration scale where inhibition reaches its midpoint. By CC50 is commonly meant the concentration giving 50% cytotoxicity.

The structures appear in SMILES notation. The source made the active and inactive calls. Unless noted, the rule behind the calls is not given here.

A short description of series [1]: Counterscreen for AddAB inhibitors: absorbance-based bacterial cell-based high throughput dose response assay for inhibitors of bacterial viability. [Related pubchem assays (depositor defined):AID435030, AID449728, AID449731, AID488942, AID488955, AID488956]. In kind it is functional.
In another series the target is Exodeoxyribonuclease V (Escherichia coli (strain K12), UniProt P04993+P07648+P08394). As to the kind of experiment: E. coli RecBCD inhibitors, dose response, counter-screen for AddAB inhibitor project, absorbance, V66 E. coli, mutant T4 phage (AID 492957). Format: functional, cell-based, Escherichia coli str. K-12 substr. MG1655.
Series [2] concerns the target Intestinal-type alkaline phosphatase (Homo sapiens, UniProt P09923). As to the kind of experiment: inhibition of human intestinal alkaline phosphatase – biochemical, dose response (AID 488876). In kind it is functional.
Series [3] deals with T1, Alkaline phosphatase, tissue-nonspecific isozyme (Homo sapiens, UniProt P05186).
T1 sequence (P05186 whole entry): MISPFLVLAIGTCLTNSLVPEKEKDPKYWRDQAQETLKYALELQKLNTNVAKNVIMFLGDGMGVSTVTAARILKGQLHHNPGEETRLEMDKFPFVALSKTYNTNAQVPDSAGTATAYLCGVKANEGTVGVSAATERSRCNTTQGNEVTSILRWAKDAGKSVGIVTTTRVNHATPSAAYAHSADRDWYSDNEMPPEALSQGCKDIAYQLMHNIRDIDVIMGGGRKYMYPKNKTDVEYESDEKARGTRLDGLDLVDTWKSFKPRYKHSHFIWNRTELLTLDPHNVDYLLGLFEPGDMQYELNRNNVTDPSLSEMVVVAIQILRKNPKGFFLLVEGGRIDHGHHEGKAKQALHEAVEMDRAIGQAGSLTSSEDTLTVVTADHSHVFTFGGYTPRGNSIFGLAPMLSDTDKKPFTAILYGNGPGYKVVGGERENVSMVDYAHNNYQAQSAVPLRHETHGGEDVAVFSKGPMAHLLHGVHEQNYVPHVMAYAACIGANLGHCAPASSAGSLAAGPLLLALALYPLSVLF
As to the kind of experiment: TNAP enzyme inhibition by screening hits, dose response, selectivity assay for mouse IAP inhibitor project, biochemical, human TNAP, uHTS hits (AID 488906). In kind it is functional.

In series [4] the target is Intestinal-type alkaline phosphatase (Mus musculus, UniProt P24822). As to the kind of experiment: PubChem AID 488785. In kind it is functional.
Chain of Intestinal-type alkaline phosphatase (Mus musculus, UniProt P24822) (P24822 whole entry): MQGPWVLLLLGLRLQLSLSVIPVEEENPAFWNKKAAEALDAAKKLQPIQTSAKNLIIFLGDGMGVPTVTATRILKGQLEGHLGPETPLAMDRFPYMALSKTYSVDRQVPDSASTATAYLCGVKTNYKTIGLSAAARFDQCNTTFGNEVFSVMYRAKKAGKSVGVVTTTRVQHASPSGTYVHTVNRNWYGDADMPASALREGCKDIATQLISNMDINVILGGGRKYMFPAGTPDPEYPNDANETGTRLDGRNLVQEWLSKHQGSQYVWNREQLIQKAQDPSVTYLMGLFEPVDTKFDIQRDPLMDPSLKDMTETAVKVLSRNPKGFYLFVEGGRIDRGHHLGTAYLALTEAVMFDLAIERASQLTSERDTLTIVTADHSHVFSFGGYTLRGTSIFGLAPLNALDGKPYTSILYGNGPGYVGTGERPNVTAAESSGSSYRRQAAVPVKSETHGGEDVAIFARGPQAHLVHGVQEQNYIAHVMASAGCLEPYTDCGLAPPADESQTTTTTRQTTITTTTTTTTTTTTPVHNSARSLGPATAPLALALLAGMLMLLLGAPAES
The nature of series [5]: Late stage assay provider results from the probe development effort to identify inhibitors of Protein Phosphatase Methylesterase 1 (PME-1): luminescence-based biochemical dose response assay to determine cytotoxicity of inhibitor compounds. [Related pubchem assays (depositor defined):AID2130, AID2143, AID2171, AID2174, AID2177, AID2232, AID2233, AID2291, AID2363, AID2365, AID2366, AID2368, AID2369, AID2371, AID463124, AID463130, AID463131, AID463132, AID463146, AID463149] Panel member name: Fetal Calf Serum. Format: toxicity.

For series [6], the target named is T2, Fatty acid synthase (Homo sapiens, UniProt P49327). Briefly: FAS thioesterase domain inhibitors, dose response, biochemical, endpoint fluorescence intensity, uHTS hits (AID 624327).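 Also: fluorescence from hydrolysis of an O-methyl fluorescein acyl ester substrate by the enzyme.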 In kind it is functional.
T2 sequence (P49327 whole entry, the tested form may be a part): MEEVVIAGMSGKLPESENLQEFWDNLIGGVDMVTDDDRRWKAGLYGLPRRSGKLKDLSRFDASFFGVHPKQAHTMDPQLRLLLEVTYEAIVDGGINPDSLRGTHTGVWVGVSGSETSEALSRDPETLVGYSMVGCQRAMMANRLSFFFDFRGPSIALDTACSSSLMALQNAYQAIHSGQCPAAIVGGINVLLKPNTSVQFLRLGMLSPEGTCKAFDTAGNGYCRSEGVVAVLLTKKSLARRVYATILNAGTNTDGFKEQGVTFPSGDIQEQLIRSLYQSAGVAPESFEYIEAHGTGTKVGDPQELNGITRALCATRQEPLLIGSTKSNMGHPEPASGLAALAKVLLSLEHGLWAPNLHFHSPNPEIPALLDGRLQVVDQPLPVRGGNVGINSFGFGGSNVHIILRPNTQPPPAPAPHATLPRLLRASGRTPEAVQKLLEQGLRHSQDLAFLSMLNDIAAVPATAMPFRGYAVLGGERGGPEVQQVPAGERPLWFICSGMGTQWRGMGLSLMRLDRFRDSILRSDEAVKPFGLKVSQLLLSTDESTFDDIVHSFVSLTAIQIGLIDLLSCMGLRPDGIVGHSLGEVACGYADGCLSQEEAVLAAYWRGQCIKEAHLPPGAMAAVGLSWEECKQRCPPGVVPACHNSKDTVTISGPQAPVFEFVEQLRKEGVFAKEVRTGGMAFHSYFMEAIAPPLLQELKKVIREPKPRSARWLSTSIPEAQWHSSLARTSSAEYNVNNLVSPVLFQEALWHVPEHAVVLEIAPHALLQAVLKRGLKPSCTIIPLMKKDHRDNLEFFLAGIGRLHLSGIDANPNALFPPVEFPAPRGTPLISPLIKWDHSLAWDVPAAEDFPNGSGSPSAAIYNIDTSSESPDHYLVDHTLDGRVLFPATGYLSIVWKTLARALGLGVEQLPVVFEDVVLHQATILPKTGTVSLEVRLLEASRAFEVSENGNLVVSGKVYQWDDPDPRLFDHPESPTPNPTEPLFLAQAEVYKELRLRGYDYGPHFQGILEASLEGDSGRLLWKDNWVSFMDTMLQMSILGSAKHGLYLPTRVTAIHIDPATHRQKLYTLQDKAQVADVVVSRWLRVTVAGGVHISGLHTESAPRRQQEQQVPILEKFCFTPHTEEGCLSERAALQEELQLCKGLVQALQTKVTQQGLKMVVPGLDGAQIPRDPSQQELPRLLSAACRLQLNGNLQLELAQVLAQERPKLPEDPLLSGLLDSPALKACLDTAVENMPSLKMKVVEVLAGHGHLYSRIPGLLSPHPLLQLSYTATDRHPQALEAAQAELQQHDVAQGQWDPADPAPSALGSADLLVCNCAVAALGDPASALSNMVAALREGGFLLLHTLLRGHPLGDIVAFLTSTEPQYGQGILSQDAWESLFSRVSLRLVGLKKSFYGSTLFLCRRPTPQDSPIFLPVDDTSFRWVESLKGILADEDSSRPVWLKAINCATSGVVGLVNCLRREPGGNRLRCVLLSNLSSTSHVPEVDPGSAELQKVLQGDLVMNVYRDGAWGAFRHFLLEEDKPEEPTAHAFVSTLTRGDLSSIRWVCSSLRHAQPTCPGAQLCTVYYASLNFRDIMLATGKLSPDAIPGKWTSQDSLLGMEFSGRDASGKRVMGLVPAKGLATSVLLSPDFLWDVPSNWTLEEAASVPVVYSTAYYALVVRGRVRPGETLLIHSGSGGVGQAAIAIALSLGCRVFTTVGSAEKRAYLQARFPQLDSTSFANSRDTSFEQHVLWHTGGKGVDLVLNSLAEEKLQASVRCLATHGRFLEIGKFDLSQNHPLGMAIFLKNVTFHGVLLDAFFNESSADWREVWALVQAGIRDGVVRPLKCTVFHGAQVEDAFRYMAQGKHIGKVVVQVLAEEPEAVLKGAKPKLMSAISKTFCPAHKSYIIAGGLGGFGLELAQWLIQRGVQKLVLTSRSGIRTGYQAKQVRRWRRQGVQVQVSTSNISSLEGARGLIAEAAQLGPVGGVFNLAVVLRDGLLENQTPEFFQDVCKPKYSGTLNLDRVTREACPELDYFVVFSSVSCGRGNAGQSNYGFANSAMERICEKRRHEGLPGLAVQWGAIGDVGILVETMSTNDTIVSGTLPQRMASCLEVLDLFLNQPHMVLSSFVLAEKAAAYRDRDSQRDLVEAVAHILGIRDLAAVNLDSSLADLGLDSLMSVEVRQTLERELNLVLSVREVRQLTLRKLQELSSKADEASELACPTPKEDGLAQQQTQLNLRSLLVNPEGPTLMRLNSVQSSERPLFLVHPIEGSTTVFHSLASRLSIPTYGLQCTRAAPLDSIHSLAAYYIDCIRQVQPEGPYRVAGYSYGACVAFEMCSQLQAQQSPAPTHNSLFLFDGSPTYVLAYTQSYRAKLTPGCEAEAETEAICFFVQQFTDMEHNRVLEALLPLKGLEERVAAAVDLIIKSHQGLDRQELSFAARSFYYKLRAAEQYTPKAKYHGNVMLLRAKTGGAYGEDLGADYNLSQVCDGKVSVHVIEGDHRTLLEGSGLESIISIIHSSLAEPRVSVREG
Series [7] in a line: Late stage assay provider results from the probe development effort to identify inhibitors of Protein Phosphatase Methylesterase 1 (PME-1): luminescence-based […] dose response assay to determine cytotoxicity of inhibitor compounds. [Related pubchem assays (depositor defined):AID2130, AID2143, AID2171, AID2174, AID2177, AID2232, AID2233, AID2291, AID2363, AID2365, AID2366, AID2368, AID2369, AID2371, AID463124, AID463130, AID463131, AID463132, AID463146, AID463149] Panel member name: Serum-free Media. Format: toxicity.

Series [8] has as its target Protein phosphatase methylesterase 1 (Homo sapiens, UniProt Q9Y570). Briefly: Late stage assay provider results from the probe development effort to identify inhibitors of protein phosphatase methylesterase 1 (PME-1): Gel-based Activity-Based Protein Profiling (ABPP) IC50 Set 2. [Related pubchem assays (depositor defined):AID2130, AID2143, AID2171, AID2174, AID2177, AID2232, AID2233, AID2291, AID2363, AID2365, AID2366, AID2368, AID2369, AID2371, AID463090, AID463091]. In kind it is functional.

Series [9] has as its target T2, Fatty acid synthase. As to the kind of experiment: FAS thioesterase domain inhibitors, dose response, biochemical, kinetic fluorescence intensity (AID 624326).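 Also: rate of fluorescence rise from hydrolysis of a fluorogenic O-methyl fluorescein ester substrate.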 In kind it is functional.

Chain of Intestinal-type alkaline phosphatase (Homo sapiens, UniProt P09923) (P09923 whole entry): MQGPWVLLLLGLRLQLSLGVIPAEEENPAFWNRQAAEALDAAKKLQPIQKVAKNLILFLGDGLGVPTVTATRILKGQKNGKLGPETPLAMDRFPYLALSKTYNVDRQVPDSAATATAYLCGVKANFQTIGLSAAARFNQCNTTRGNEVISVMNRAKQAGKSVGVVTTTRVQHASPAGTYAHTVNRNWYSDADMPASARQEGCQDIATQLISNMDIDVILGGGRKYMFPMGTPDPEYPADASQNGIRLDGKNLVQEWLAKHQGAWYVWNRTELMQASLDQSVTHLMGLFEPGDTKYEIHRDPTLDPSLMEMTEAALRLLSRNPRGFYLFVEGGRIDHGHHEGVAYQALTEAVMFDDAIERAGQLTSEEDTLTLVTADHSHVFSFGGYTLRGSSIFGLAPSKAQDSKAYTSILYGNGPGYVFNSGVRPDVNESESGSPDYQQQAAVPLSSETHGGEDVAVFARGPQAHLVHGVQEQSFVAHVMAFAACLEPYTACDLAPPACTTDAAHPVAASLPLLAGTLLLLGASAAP
Chain of Protein phosphatase methylesterase 1 (Q9Y570 whole entry): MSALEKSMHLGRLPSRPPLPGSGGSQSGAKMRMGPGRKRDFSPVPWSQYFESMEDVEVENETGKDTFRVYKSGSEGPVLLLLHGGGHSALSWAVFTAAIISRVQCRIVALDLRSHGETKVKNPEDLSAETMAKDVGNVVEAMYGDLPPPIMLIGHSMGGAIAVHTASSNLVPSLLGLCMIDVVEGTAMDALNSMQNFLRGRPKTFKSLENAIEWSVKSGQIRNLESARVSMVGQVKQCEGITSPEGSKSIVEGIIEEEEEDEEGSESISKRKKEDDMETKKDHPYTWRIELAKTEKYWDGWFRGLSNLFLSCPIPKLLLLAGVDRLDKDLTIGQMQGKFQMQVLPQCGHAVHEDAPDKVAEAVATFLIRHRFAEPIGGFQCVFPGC

For `N#Cc1c(-c2ccccc2)ccn(Cc2cccc(Cl)c2)c1=O`, the IC50 (in series [1]; at Exodeoxyribonuclease V) was > 119 µM (inactive) each time.
Turning to `NS(=O)(=O)c1ccc2c(c1)oc(=O)c1cc(S(N)(=O)=O)ccc12`, the IC50 was 7.73 µM (active) in [2], 11.8 µM (active) in [3] and 2.51 µM (active) in [4].
Turning to `COC(=O)N1C(=O)[C@](c2ccccc2)(C2CCCC2)N1C(=O)OC`, the CC50 in [5] and in series [7] was > 50 µM (inactive) throughout. For the same molecule, the IC50 is 0.884 µM (active) at Fatty acid synthase [6], 0.01 µM (active) in series [8] and 0.715 µM (active) at Fatty acid synthase [9].
